Source: patent US9957232B2, “4-[4-({[4-chloro-3-(trifluoromethyl)phenyl]carbamoyl}amino)-3-fluorophenoxy]-N-methylpyridine-2-carboxamide monohydrate” (BAYER HEALTHCARE LLC, priority 2006, dated 2018)

Assay: stability in the manufacture of pharmaceutical compositions
Type: physicochemical
Details: monohydrate form; qualitative statement, no test described

CNC(=O)c1cc(Oc2ccc(NC(=O)Nc3ccc(Cl)c(C(F)(F)F)c3)c(F)c2)ccn1 [compound of the formula (II), 4-[4-({[4-chloro-3-(trifluoromethyl)phenyl]carbamoyl}amino)-3-fluorophenoxy]-N-methylpyridine-2-carboxamide monohydrate]
stability in the manufacture of pharmaceutical compositions: high stability
